Experimental findings from ChEMBL document CHEMBL1773047, “Antiparasitic compounds from Cupania cinerea with activities against Plasmodium falciparum and Trypanosoma brucei rhodesiense” (J Nat Prod, 2011) are described below.

Bounds are passed on as bounds.

One assay has as its system L6. In words: Cytotoxicity against rat L6 cells after 72 hrs by microplate fluorimetry. Type of assay: cell-based. The settings on record: L6, 72 h.
Assay [1] relates to Trypanosoma brucei rhodesiense. The assay is described as follows: Antiparasitic activity against Trypanosoma brucei rhodesiense STIB 900 bloodstream form after 72 hrs by microplate fluorimetry. Type of assay: functional, organism-based. Particulars: STIB 900, 72 h.
A further assay deals with Plasmodium falciparum. The assay is described as follows: Antiplasmodial activity against chloroquine- and pyrimethamine-resistant Plasmodium falciparum K1 infected in human red blood cells assessed as [3H]hypoxanthine incorporation after 48 hrs by liquid scintillation counting. Type of assay: functional, organism-based.

`COc1cc2ccc(=O)oc2cc1O` [SCOPOLETIN]: the IC50 (as a rule, the point on the concentration scale where inhibition reaches its midpoint) in the assay with L6 is over 90 µM; in assay [1], over 90 µM; in the assay with Plasmodium falciparum it was over 25 µM.

Turning to `CC(=O)O[C@@H]1[C@@H](OC(C)=O)[C@H](C)O[C@@H](O[C@H]2[C@H](OC/C=C(\C)CC/C=C(\C)CC/C=C(\C)CCC=C(C)C)O[C@H](CO)[C@@H](O)[C@@H]2O)[C@@H]1OC(C)=O`, the IC50 with L6 came out at 8.7 µM; in assay [1] it was 15.8 µM; in the assay on Plasmodium falciparum, 2.1 µM.

Regarding `CCCCCC(=O)Cc1cc(OC)cc(O)c1C(=O)Oc1cc(CC(=O)CCCCC)c(C(=O)OC)c(OC)c1` [GUSTASTATIN], the IC50 in the assay with L6 is over 90 µM; in assay [1], 19.4 µM; with Plasmodium falciparum it was over 9 µM.

On to `CC1(C)OC(=O)CC[C@]2(C)[C@H]3CC[C@H]4[C@@](C)(CC[C@@]5(C)C(C)(C)CCC[C@]45C)O[C@]3(C)CC[C@@H]12` [CUPACINOXEPIN], for which the IC50 was over 90 µM with L6, 71.6 µM in assay [1] and 8.7 µM in the assay with Plasmodium falciparum.

With `COc1cc(C)c2c(=O)c3c(O)cc(OC)cc3oc2c1` [LICHEXANTHONE], the results for the IC50 (in the assay on L6; in assay [1]; with Plasmodium falciparum) were 52.1 µM, over 90 µM and over 20 µM, respectively.

For `CC(=O)OC[C@H]1O[C@@H](OC/C=C(\C)CC/C=C(\C)CC/C=C(\C)CCC=C(C)C)[C@H](O[C@@H]2O[C@@H](C)[C@H](OC(C)=O)[C@@H](OC(C)=O)[C@H]2OC(C)=O)[C@@H](O)[C@@H]1O` [CUPACINOSIDE], the IC50 in the assay on L6 came to 11.6 µM; in assay [1], 4.6 µM; in the assay with Plasmodium falciparum, 1.3 µM.

In the case of `CC1(C)CC[C@]2(C)CC=C3[C@]4(C)CC[C@H]5C(C)(C)C(=O)CC[C@]5(C)[C@H]4CC[C@@]3(C)[C@@H]2C1` [TARAXERONE], the figures for the IC50 (in the assay with L6; in assay [1]; with Plasmodium falciparum) were over 90 µM, over 90 µM and over 10 µM, respectively.

For the molecule `CC(C)=CCC[C@H](C)[C@@H]1C=C[C@](C)(O)[C@@H](O)C1`, the IC50 was over 90 µM with L6, 61.3 µM in assay [1] and over 20 µM with Plasmodium falciparum.

For `C=C(C)[C@@H]1CC[C@]2(C)CC[C@]3(C)[C@H](CC[C@@H]4[C@@]5(C)CCC(=O)C(C)(C)[C@@H]5CC[C@]43C)[C@@H]12` [LUPENONE], the results for the IC50 (in the assay with L6; in assay [1]; in the assay on Plasmodium falciparum) were over 90 µM, over 90 µM and 4.7 µM, respectively.

`C=C(C)[C@@H]1CC[C@]2(CO)CC[C@]3(C)[C@H](CC[C@@H]4[C@@]5(C)CCC(=O)C(C)(C)[C@@H]5CC[C@]43C)[C@@H]12` [BETULONE]: the IC50 in the assay on L6 was determined as 22.2 µM; in assay [1], 18.9 µM; in the assay with Plasmodium falciparum it was 3 µM.

In the case of `CC1(C)CC[C@]2(C)CC=C3[C@]4(C)CC[C@H]5C(C)(C)[C@@H](O)CC[C@]5(C)[C@H]4CC[C@@]3(C)[C@@H]2C1` [TARAXEROL], the IC50 was over 90 µM with L6, 10.5 µM in assay [1] and 8.5 µM in the assay on Plasmodium falciparum.

For the molecule `C=C1CC[C@@H]2O[C@]2(C)CC[C@@H]2[C@@H]1CC2(C)C`, the figures for the IC50 (in the assay with L6; in assay [1]; in the assay with Plasmodium falciparum) were over 90 µM, over 90 µM and over 25 µM, respectively.

As for `CC(C)=CCCC(C)C1CC=C(C)C(O)C1O` (configuration not stated), the IC50 in the assay on L6 was over 90 µM; in assay [1], 38.2 µM; with Plasmodium falciparum, over 20 µM.

For `CC(C)[C@@]12CC[C@]3(C)[C@H]4CC[C@@H]5[C@@]6(C)CCC(=O)C(C)(C)[C@@H]6CC[C@@]5(C)[C@]4(C)CC[C@@]13O2`, the IC50 with L6 was over 90 µM; in assay [1], over 90 µM; in the assay on Plasmodium falciparum it was over 10 µM.
